Molecular target: p38 (Homo sapiens, UniProt Q16539)
Test: Protein Kinase Assay (33P incorporation from γ-[33P]ATP into GST-ATF-2)
Format: biochemical
Settings: 2 nM p38, preincubated 20 min at 30° C.; 10 uM cold ATP, 2 uM GST-ATF2, 70 min; read-out: ACT. (Activity), IC50 category in Protein Kinase Assay
Procedure: Protein Kinase Assay. The protein kinase activity of p38 was determined by measuring the incorporation of ^33P from γ-[^33P]ATP into the GST-ATF-2 substrate, amino acids 19-96 (Upstate, N.Y. USA). The reactions were carried out in a final volume of 50 μL of 24 mM Tris-HCl buffer, pH 7.5, containing 13 mM MgCl2, 12% Glycerol, 2% DMSO, 2 mM DTT, […] of γ-[^33P]ATP (1000 Ci/mmol; 1 Ci=37 GBq) (GE Healthcare, Piscataway, N.J.), 10 uM cold ATP (GE Healthcare, Piscataway, N.J.), and 2 uM GST-ATF2. Compounds were preincubated with 2 nM p38 for 20 min at 30° C.; the reactions were initiated by the addition of GST-ATF2 and ATP and incubated for 70 min at 30° C. before being stopped by the addition of 10 μL of 600 mM phosphoric acid. The phosphorylated substrate was captured on phosphocellulose 96-well plate (Millipore MAPHNOB 10), washed with 100 mM phosphoric acid, and counted in a BeckmenCoulter LS6500 liquid scintillation counter. […] (Activity).

p38, sequence (Q16539 whole entry): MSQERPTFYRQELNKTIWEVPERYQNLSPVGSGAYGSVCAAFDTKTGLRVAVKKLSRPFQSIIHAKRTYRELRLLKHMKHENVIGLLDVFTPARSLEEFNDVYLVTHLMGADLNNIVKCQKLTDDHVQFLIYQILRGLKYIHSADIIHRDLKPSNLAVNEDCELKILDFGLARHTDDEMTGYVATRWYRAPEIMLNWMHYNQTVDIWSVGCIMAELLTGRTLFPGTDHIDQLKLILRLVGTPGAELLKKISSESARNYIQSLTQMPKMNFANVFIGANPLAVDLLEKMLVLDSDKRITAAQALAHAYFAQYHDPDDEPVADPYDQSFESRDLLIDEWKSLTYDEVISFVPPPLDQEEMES

Cc1ccc(NC(=O)Nc2cn(C(C)(C)C)nc2C(=O)N2CCNC(=O)C2(C)C)cc1-c1ccc(CN2CCOCC2)nc1 [1-(1-tert-butyl-3-(2,2-dimethyl-3-oxopiperazine-1-carbonyl)-1H-pyrazol-4-yl)-3-(4-methyl-3-(6-(morpholinomethyl)pyridin-3-yl)phenyl)urea] was tested. Which IC50 did it give?
Its IC50 is < 100 nM.

For Cc1ccc(NC(=O)Nc2cn(C(C)(C)C)nc2C(=O)N2CCNC(=O)C2(C)C)cc1-c1ccc(N2CCOCC2)nc1 [1-(1-tert-butyl-3-(2,2-dimethyl-3-oxopiperazine-1-carbonyl)-1H-pyrazol-4-yl)-3-(4-methyl-3-(6-morpholinopyridin-3-yl)phenyl)urea], which IC50 is on record?
The IC50 was < 100 nM.

For Cc1ccc(NC(=O)Nc2cn(C(C)(C)C)nc2C(=O)N2CCNC(=O)C2(C)C)cc1-c1cccnc1 [1-(1-tert-butyl-3-(2,2-dimethyl-3-oxopiperazine-1-carbonyl)-1H-pyrazol-4-yl)-3-(4-methyl-3-(pyridin-3-yl)phenyl)urea], which IC50 is on record?
The IC50 was < 100 nM.

For Cc1ccc(NC(=O)Nc2cn(C(C)(C)C)nc2C(=O)N2CCN(C3CCN(C)C3)C(=O)C2(C)C)cc1-c1cccnc1 (stereo not drawn) [1-(1-tert-butyl-3-(2,2-dimethyl-4-(1-methylpyrrolidin-3-yl)-3-oxopiperazine-1-carbonyl)-1H-pyrazol-4-yl)-3-(4-methyl-3-(pyridin-3-yl)phenyl)urea], which IC50 is on record?
Its IC50 is < 1000 nM.

How did the IC50 turn out when Cc1ccc(NC(=O)Nc2sc(C(C)(C)C)nc2C(=O)N2CCN(C)C(=O)C2(C)C)cc1-c1ccc(CN2CCOCC2)cn1 [1-(2-tert-butyl-4-(2,2,4-trimethyl-3-oxopiperazine-1-carbonyl)thiazol-5-yl)-3-(4-methyl-3-(5-(morpholinomethyl)pyridin-2-yl)phenyl)urea] was run?
Its IC50 is < 100 nM.

Cc1nnc(-c2ccc(-c3cc(NC(=O)Nc4sc(C(C)(C)C)nc4C(=O)N4CCN(C)C(=O)C4(C)C)ccc3C)cn2)o1 [1-(2-tert-butyl-4-(2,2,4-trimethyl-3-oxopiperazine-1-carbonyl)thiazol-5-yl)-3-(4-methyl-3-(6-(5-methyl-1,3,4-oxadiazol-2-yl)pyridin-3-yl)phenyl)urea] was tested. Which IC50 did it give?
Its IC50 is < 100 nM.

Which IC50 does the source give for Cc1ccc(NC(=O)Nc2sc(C(C)(C)C)nc2C(=O)N2CCN(C)C(=O)C2(C)C)cc1-c1ccc(CN2CCOCC2)nc1 [1-(2-tert-butyl-4-(2,2,4-trimethyl-3-oxopiperazine-1-carbonyl)thiazol-5-yl)-3-(4-methyl-3-(6-(morpholinomethyl)pyridin-3-yl)phenyl)urea] here?
The IC50 was < 100 nM.

CCc1ccc(-c2cc(NC(=O)Nc3cn(C4(C)CCCC4)nc3C(=O)N3CCNC(=O)C3(C)C)ccc2C)cn1 [1-(3-(2,2-dimethyl-3-oxopiperazine-1-carbonyl)-1-(1-methylcyclopentyl)-1H-pyrazol-4-yl)-3-(3-(6-ethylpyridin-3-yl)-4-methylphenyl)urea] was tested. Which IC50 did it give?
Its IC50 is < 100 nM.

For Cc1ccc(NC(=O)Nc2sc(C(C)(C)C)cc2C(=O)N2CCN(C)C(=O)C2(C)C)cc1-c1ccc(-n2ccnc2)nc1 [1-(3-(6-(1H-imidazol-1-yl)pyridin-3-yl)-4-methylphenyl)-3-(5-tert-butyl-3-(2,2,4-trimethyl-3-oxopiperazine-1-carbonyl)thiophen-2-yl)urea], which IC50 is on record?
The IC50 was < 100 nM.

For Cc1ccc(NC(=O)Nc2sc(C(C)(C)C)cc2C(=O)N2CCN(C)C(=O)C2(C)C)cc1-c1ccc(-n2cccn2)nc1 [1-(3-(6-(1H-pyrazol-1-yl)pyridin-3-yl)-4-methylphenyl)-3-(5-tert-butyl-3-(2,2,4-trimethyl-3-oxopiperazine-1-carbonyl)thiophen-2-yl)urea], which IC50 is on record?
Its IC50 is < 100 nM.

With Cc1ccc(NC(=O)Nc2sc(C(C)(C)C)cc2C(=O)N2CCNC(=O)C2(C)C)cc1-c1ccc(N2CCC(N)C2)nc1 (stereo not drawn) [1-(3-(6-(3-aminopyrrolidin-1-yl)pyridin-3-yl)-4-methylphenyl)-3-(5-tert-butyl-3-(2,2-dimethyl-3-oxopiperazine-1-carbonyl)thiophen-2-yl)urea] as the compound, how does the IC50 read?
The IC50 was < 100 nM.

How did the IC50 turn out when Cc1ccc(NC(=O)Nc2sc(C(C)(C)C)cc2C(=O)N2CCNC(=O)C2(C)C)cc1-c1ccc(CN)nc1 [1-(3-(6-(aminomethyl)pyridin-3-yl)-4-methylphenyl)-3-(5-tert-butyl-3-(2,2-dimethyl-3-oxopiperazine-1-carbonyl)thiophen-2-yl)urea] was run?
The IC50 was < 100 nM.

For Cc1ccc(NC(=O)Nc2sc3c(c2C(=O)N2CCN(C)C(=O)C2(C)C)CCOC3)cc1-c1ccc(CN2CCOCC2)nc1 [1-(4-methyl-3-(6-(morpholinomethyl)pyridin-3-yl)phenyl)-3-(3-(2,2,4-trimethyl-3-oxopiperazine-1-carbonyl)-5,7-dihydro-4H-thieno[2,3-c]pyran-2-yl)urea], which IC50 is on record?
Its IC50 is < 1000 nM.

CCC(C)(C)c1cc(C(=O)N2CCN(C)C(=O)C2(C)C)c(NC(=O)Nc2ccc(C)c(-c3ccc(CN4CCOCC4)nc3)c2)s1 [1-(4-methyl-3-(6-(morpholinomethyl)pyridin-3-yl)phenyl)-3-(5-tert-pentyl-3-(2,2,4-trimethyl-3-oxopiperazine-1-carbonyl)thiophen-2-yl)urea] was tested. Which IC50 did it give?
Its IC50 is < 100 nM.

Cc1ccc(NC(=O)Nc2cc(C(C)(C)C)oc2C(=O)N2CCN(C)C(=O)C2(C)C)cc1-c1ccc(CN2CCOCC2)cn1 [1-(5-tert-butyl-2-(2,2,4-trimethyl-3-oxopiperazine-1-carbonyl)furan-3-yl)-3-(4-methyl-3-(5-(morpholinomethyl)pyridin-2-yl)phenyl)urea] was tested. Which IC50 did it give?
Its IC50 is < 100 nM.

Which IC50 does the source give for CCc1ccc(-c2cc(NC(=O)Nc3cc(C(C)(C)C)sc3C(=O)N3CCN(C)C(=O)C3(C)C)ccc2C)cn1 [1-(5-tert-butyl-2-(2,2,4-trimethyl-3-oxopiperazine-1-carbonyl)thiophen-3-yl)-3-(3-(6-ethylpyridin-3-yl)-4-methylphenyl)urea] here?
The IC50 was < 100 nM.

With CCc1ccc(-c2cc(NC(=O)Nc3cc(C(C)(C)C)sc3C(=O)N3CCN(C)C(=O)C3(C)C)cc(F)c2C)cn1 [1-(5-tert-butyl-2-(2,2,4-trimethyl-3-oxopiperazine-1-carbonyl)thiophen-3-yl)-3-(3-(6-ethylpyridin-3-yl)-5-fluoro-4-methylphenyl)urea] as the compound, how does the IC50 read?
The IC50 was < 100 nM.

With COc1ccc(-c2cc(NC(=O)Nc3cc(C(C)(C)C)sc3C(=O)N3CCN(C)C(=O)C3(C)C)ccc2C)cn1 [1-(5-tert-butyl-2-(2,2,4-trimethyl-3-oxopiperazine-1-carbonyl)thiophen-3-yl)-3-(3-(6-methoxypyridin-3-yl)-4-methylphenyl)urea] as the compound, how does the IC50 read?
Its IC50 is < 100 nM.

How did the IC50 turn out when COc1ccc(-c2cc(NC(=O)Nc3cc(C(C)(C)C)sc3C(=O)N3CCN(C)C(=O)C3(C)C)cc(F)c2C)cn1 [1-(5-tert-butyl-2-(2,2,4-trimethyl-3-oxopiperazine-1-carbonyl)thiophen-3-yl)-3-(3-fluoro-5-(6-methoxypyridin-3-yl)-4-methylphenyl)urea] was run?
Its IC50 is < 100 nM.

How did the IC50 turn out when Cc1ccc(NC(=O)Nc2cc(C(C)(C)C)sc2C(=O)N2CCN(C)C(=O)C2(C)C)cc1-c1ccc(CN2CCOCC2)nc1 [1-(5-tert-butyl-2-(2,2,4-trimethyl-3-oxopiperazine-1-carbonyl)thiophen-3-yl)-3-(4-methyl-3-(6-(morpholinomethyl)pyridin-3-yl)phenyl)urea] was run?
The IC50 was < 100 nM.

How did the IC50 turn out when Cc1ccc(NC(=O)Nc2cc(C(C)(C)C)sc2C(=O)N2CCN(C)C(=O)C2(C)C)cc1-c1ccc(N2CCOCC2)nc1 [1-(5-tert-butyl-2-(2,2,4-trimethyl-3-oxopiperazine-1-carbonyl)thiophen-3-yl)-3-(4-methyl-3-(6-morpholinopyridin-3-yl)phenyl)urea] was run?
The IC50 was < 100 nM.

Reference: US20100041642A1, “UREA INHIBITORS OF MAP KINASES” (LOCUS PHARMACEUTICALS, INC., priority 2008, published 2010)
